For orientation: mass density means mass per unit of volume. Broadly, the viscosity is the internal friction of a fluid under shear.

The conditions of data set [1]: 358.15 K, 101 kPa, Liquid.
Data set [2] can be described thus: molar heat capacity at constant pressure; wn = mass fraction of the nth substance listed. Conditions: 358.15 K; 101 kPa; Liquid; Small sample (50 mg) DSC; w1 = 1.
A short description of data set [3]: xn = mol fraction of the nth substance listed. The settings on record: 358.15 K; 101 kPa; Liquid; Falling or rolling sphere viscometry; x1 = 1.

Each structure is given as a SMILES string. Numbers after ± are expanded uncertainties.

On to `CCCCn1cc[n+](C)c1.CS(=O)(=O)[O-]` [1-butyl-3-methylimidazolium methanesulfonate], for which the electrical conductivity in data set [1] (Alternating current cell with electrodes) stood at 0.805 ± 0.14 S/m. Further, in data set [1] (Vibrating tube method), the mass density worked out at 1134 ± 2 kg/m3.

Regarding `O` [water] + CCCCn1cc[n+](C)c1.CS(=O)(=O)[O-], the “molar heat capacity at constant pressure” value in data set [2] came to 4.12 ± 0.23 J/K/mol. In addition, in data set [3], the viscosity came to 0.334 ± 0.033 mPa·s.

These data come from the NIST ThermoML archive (doi:10.1021/je300045c).
